From PubChem BioAssay AID1963836 (Molecular Pharmacology Branch, DTP, NCI, 2024)
Where “and” joins values, the source holds several entries; their conditions need not be identical. Equal values may be shown once.

System: 857933-349-R-J2-PDC complex spheroid viability
Test: Anticancer human tumor 857933-349-R-J2-PDC patient-derived colon adenocarcinoma cell line growth inhibition [POLQ]
Details: for viability, T/C: stronger effect = lower value
Procedure: Multicellular complex tumor spheroid response to Polymerase (POL) inhibitors (novobiocin, ART-558, RP6685) in combination with a variety of drugs and investigational agents in selected tumor cell lines
The POL inhibitors (novobiocin, ART-558, and RP6685) were evaluated both individually and in combination with standard of care and investigational anticancer small molecules within a complex spheroid model of solid tumors. . Complex spheroids include a stromal component modeled by human endothelial cells (HUVEC) and fibroblasts modeled by human mesenchymal stem cells (MSCs). The concentration ranges selected for each drug and investigational agent were based upon clinically achievable concentrations if the clinical Cmax of the agent was known.
Compounds. The drugs and investigational agents: novobiocin (NSC847541), ART-558 (NSC835418), RP-6685 (NSC848927), peposertib (NSC802822), ceralasertib (NSC780249), elimusertib (NSC800525), camonsertib (NSC841442), AZD-1390 (NSC803789), olaparib (NSC753686), talazoparib (NSC767125), rucaparib (NSC756644), sotorasib (NSC818433), MRTX-1133 (NSC836407), SN-38 (NSC673596), topotecan (NSC609699), epotoside (NSC141540), doxorubicin (NSC123127), gemcitabine (NSC613327), 5-fluorouracil (NSC19893), paclitaxel (NSC125973), vemurafenib (NSC761431), MSA-2 (NSC828583), SN-011 (NSC837082), adavosertib (NSC754352), prexasertib (NSC758257), carboplatin (NSC241240) and oxaliplatin (NSC266046), were obtained from the National Cancer Institute (NCI) Developmental Therapeutics Program Chemical Repository (21). The FDA-approved anticancer drug set is available from the Developmental Therapeutics Program at https://dtp.cancer.gov/organization/dscb/obtaining/. […] The stock solutions were prepared in dimethyl sulfoxide (DMSO, Sigma-Aldrich, St. Louis, MO, cat. D2650), except for the platinum compounds which were prepared in saline (Quality Biological, Gaithersburg, MD, cat. 114-055-101), at 800-fold the tested concentration and stored at -70 degrees C prior to their use. All drugs and investigational agents were tested over a range starting from a high concentration at or near the clinical Cmax and decreasing in half-log increments. If the clinical Cmax for an agent had not been determined, the highest concentration tested was 10 microM, except for SN-38, which was tested at a high concentration of 1 microM.
Cell Culture. All cells were maintained in an incubator at 37 degrees C and 5% CO2 with 95% humidity. The PDC lines were cultured according to standard operating procedures established by the NCI PDMR (https://pdmr.cancer.gov). Table 3 of the manuscript, lists the cell lines along with the number of the three cell types plated to form the mct-spheroids and media for tumor cell growth. After thawing, all PDC lines, except 997537-175-T-J1-PDC and 415267-285-R-J2-PDC, were cultured in Matrigel-coated flasks prepared with a working solution of 1X Ham's F-12 nutrient mix, without supplementation (Thermo Fisher Scientific, cat. 11765054), 100 U/mL penicillin-streptomycin (Thermo Fisher Scientific, cat. 15140122), and 2.5% Matrigel (Corning Inc., Corning, NY, cat. 354248) for the first three passages. The two PDC lines 997537-175-T-J1-PDC and 415267-285-R-J2-PDC were cultured on uncoated flasks. The 857933-349-R-J2-PDC line was cultured in 6C/Colon 1B media containing advanced DMEM/F-12 (Thermo Fisher Scientific, cat. 12634028), 10 mM HEPES (Thermo Fisher Scientific, cat. 15630080), 1X GlutaMAX supplement (Thermo Fisher Scientific, cat. 35050061), 0.1 mg/mL primocin (InvivoGen, San Diego, CA, cat. ant-pm-2), 10% defined fetal bovine serum, heat inactivated (HyClone Laboratories Inc., Logan, UT, cat. SH30070.03HI), 50% L-WRN conditioned media (ATCC, cat. CRL-3276), 1.25 mM N-Acetyl-L-cysteine (Sigma-Aldrich, cat. A9165), 10 mM nicotinamide (Sigma-Aldrich, cat. N0636), 1X B-27 supplement (Thermo Fisher Scientific, cat. 17504044), 1X N-2 supplement (Thermo Fisher Scientific, cat. […]

[1] = compound alone, run of 01/08/2024
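Also: spheroids exposed to compounds for seven days before readout.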

Work on `C#Cc1c(F)ccc2cc(O)cc(-c3ncc4c(N5CC6CCC(C5)N6)nc(OCC56CCCN5CC(F)C6)nc4c3F)c12` (stereo unspecified) + Cc1cccc(N(C)C(=O)C2C(O)CCN2c2nc(C)cc(C(F)(F)F)c2C#N)c1 yielded an IC50 (curve of first compound, second compound 0.0316 µM) of over 10 µM, an IC50 (curve of first compound, second compound 0.1 µM) of over 10 µM and an IC50 (curve of first compound, second compound 0.316 µM) of over 10 µM. For the same compound, the IC50 (curve of first compound, second compound 1 µM) was over 10 µM, the IC50 (curve of first compound, second compound 3.16 µM) was over 10 µM and the IC50 (curve of first compound, second compound 10 µM) was over 10 µM. For the same compound, the viability, T/C (second compound 0.0316 µM, first compound 0.0316 µM) was 91.7%, the viability, T/C (second compound 0.0316 µM, first compound 0.1 µM) was 105% and the viability, T/C (second compound 0.0316 µM, first compound 0.316 µM) was 101%. It also gave a viability, T/C (second compound 0.0316 µM, first compound 1 µM) of 89.2%, a viability, T/C (second compound 0.0316 µM, first compound 3.16 µM) of 89.4% and a viability, T/C (second compound 0.0316 µM, first compound 10 µM) of 82.8%. It also gave a viability, T/C (second compound 0.1 µM, first compound 0.0316 µM) of 107%, a viability, T/C (second compound 0.1 µM, first compound 0.1 µM) of 97.8% and a viability, T/C (second compound 0.1 µM, first compound 0.316 µM) of 96.3%. It also gave a viability, T/C (second compound 0.1 µM, first compound 1 µM) of 76.8%, a viability, T/C (second compound 0.1 µM, first compound 3.16 µM) of 89.2% and a viability, T/C (second compound 0.1 µM, first compound 10 µM) of 74.2%. It also gave a viability, T/C (second compound 0.316 µM, first compound 0.0316 µM) of 101%, a viability, T/C (second compound 0.316 µM, first compound 0.1 µM) of 110% and a viability, T/C (second compound 0.316 µM, first compound 0.316 µM) of 103%. It also gave a viability, T/C (second compound 0.316 µM, first compound 1 µM) of 80.3%, a viability, T/C (second compound 0.316 µM, first compound 3.16 µM) of 96.1% and a viability, T/C (second compound 0.316 µM, first compound 10 µM) of 91.4%. The viability, T/C (second compound 1 µM, first compound 0.0316 µM) was 87%, the viability, T/C (second compound 1 µM, first compound 0.1 µM) was 87.1% and the viability, T/C (second compound 1 µM, first compound 0.316 µM) was 85.6%. For the same compound, the viability, T/C (second compound 1 µM, first compound 1 µM) was 87.5%, the viability, T/C (second compound 1 µM, first compound 3.16 µM) was 91% and the viability, T/C (second compound 1 µM, first compound 10 µM) was 87.6%. The viability, T/C (second compound 3.16 µM, first compound 0.0316 µM) was 97.7%, the viability, T/C (second compound 3.16 µM, first compound 0.1 µM) was 90.2% and the viability, T/C (second compound 3.16 µM, first compound 0.316 µM) was 85.9%. For the same compound, the viability, T/C (second compound 3.16 µM, first compound 1 µM) was 90.8%, the viability, T/C (second compound 3.16 µM, first compound 3.16 µM) was 101% and the viability, T/C (second compound 3.16 µM, first compound 10 µM) was 84.2%. For the same compound, the viability, T/C (second compound 10 µM, first compound 0.0316 µM) was 80.8%, the viability, T/C (second compound 10 µM, first compound 0.1 µM) was 86.9% and the viability, T/C (second compound 10 µM, first compound 0.316 µM) was 91%. It also gave a viability, T/C (second compound 10 µM, first compound 1 µM) of 75.1%, a viability, T/C (second compound 10 µM, first compound 3.16 µM) of 90.9% and a viability, T/C (second compound 10 µM, first compound 10 µM) of 81.3%.

For `CC(=O)O[C@H]1C(=O)[C@@]2(C)[C@H]([C@H](OC(=O)c3ccccc3)[C@]3(O)C[C@H](OC(=O)[C@H](O)[C@@H](NC(=O)c4ccccc4)c4ccccc4)C(C)=C1C3(C)C)[C@]1(OC(C)=O)CO[C@@H]1C[C@@H]2O`, the viability, T/C (compound 0.00949 µM) was 40.3% and 50.5% and 65.1%, the viability, T/C (compound 0.03 µM) was 15.2% and 21.8% and 27.1% and the viability, T/C (compound 0.0949 µM) was 9.46% and 11.5% and 16.2%. The viability, T/C (compound 0.3 µM) was 12.5% and 11.3% and 21.3%, the viability, T/C (compound 0.949 µM) was 11.2% and 14.4% and 17% and the viability, T/C (compound 3 µM) was 12.1% and 16.1% and 21.9%. For the same compound, the IC50 (curve of compound) was < 0.00949 µM and 0.00959 µM and 0.015 µM.

Compound `COC1C(OC(N)=O)C(O)C(Oc2ccc3c(O)c(NC(=O)c4ccc(O)c(CC=C(C)C)c4)c(=O)oc3c2C)OC1(C)C` (stereo unspecified) has an IC50 [1] of over 10 µM.

With `Cc1cccc(N(C)C(=O)C2C(O)CCN2c2nc(C)cc(C(F)(F)F)c2C#N)c1` (stereo unspecified) the viability, T/C (compound 0.0316 µM) was 96.2% [middle of 13 runs], the IC50 [1] was over 10 µM and the IC50 (compound alone, run of 01/19/2024) was over 10 µM.

With `CNCc1ccc(-c2[nH]c3cc(F)cc4c3c2CCNC4=O)cc1` the viability, T/C (compound 0.0316 µM) was 100% and 90.4% and 94.9%, the viability, T/C (compound 0.1 µM) was 113% and 94.5% and 90.2% and the viability, T/C (compound 0.316 µM) was 112% and 94.5% and 80.8%. The viability, T/C (compound 1 µM) was 109% and 95.4% and 91.2%, the viability, T/C (compound 3.16 µM) was 108% and 106% and 89.7% and the viability, T/C (compound 10 µM) was 97.1% and 91.2% and 90%. The IC50 (curve of compound) was over 10 µM.

In the case of `CC(C)n1c(=O)n(C)c2cnc3cc(F)c(-c4ccc(OCCCN5CCCCC5)nc4)cc3c21`, the viability, T/C (compound 0.0316 µM) is reported as 85.8% and 92.4% and 99%, the viability, T/C (compound 0.1 µM) is reported as 84.1% and 96.4% and 101% and the viability, T/C (compound 0.316 µM) is reported as 92.8% and 101% and 115%. For the same compound, the viability, T/C (compound 1 µM) was 91.6% and 100% and 106%, the viability, T/C (compound 3.16 µM) was 94.7% and 113% and 97.5% and the viability, T/C (compound 10 µM) was 63.6% and 98.3% and 110%. It also gave an IC50 (curve of compound) of over 10 µM.

In the case of `C#Cc1c(F)ccc2cc(O)cc(-c3ncc4c(N5CC6CCC(C5)N6)nc(OCC56CCCN5CC(F)C6)nc4c3F)c12` (stereo unspecified), the viability, T/C (compound 0.0316 µM) is reported as 85.3% and 89.3% and 102%, the viability, T/C (compound 0.1 µM) is reported as 101% and 91.6% and 82.3% and the viability, T/C (compound 0.316 µM) is reported as 95.7% and 95.3% and 81.3%. For the same compound, the viability, T/C (compound 1 µM) was 87.1% and 81.7% and 96.6%, the viability, T/C (compound 3.16 µM) was 99.9% and 71.5% and 70.8% and the viability, T/C (compound 10 µM) was 76.4% and 80.9% and 93.4%. It also gave an IC50 (curve of compound) of over 10 µM.

With `COc1cccc2c1C(=O)c1c(O)c3c(c(O)c1C2=O)CC(O)(C(=O)CO)CC3OC1CC(N)C(O)C(C)O1` (stereo unspecified) the viability, T/C (compound 0.0316 µM) was 74.8% and 79.1% and 66.5%, the viability, T/C (compound 0.1 µM) was 76.8% and 69% and 68.7% and the viability, T/C (compound 0.316 µM) was 43.7% and 46.9% and 49.5%. The viability, T/C (compound 1 µM) was 10.4% and 8.69% and 8.8%, the viability, T/C (compound 3.16 µM) was 0.42% and 0.45% and 0.4% and the viability, T/C (compound 10 µM) was 0.55% and 0.34% and 0.38%. The IC50 (curve of compound) was 0.259 µM and 0.312 µM.
